From article PMC6508677, “Identification of druggable small molecule antagonists of the Plasmodium falciparum hexose transporter PfHT and assessment of ligand access to the glucose permeation pathway via FLAG-mediated protein engineering” (PLoS ONE, 2019)
Values joined by “and” are separate entries in the source; they are usually repeats but may differ in a detail not shown here. Equal values may be shown once. Read-outs that look alike come from different tables or passages of the source.

Key:
PfHT = target: T1, PfHT (Plasmodium falciparum, UniProt Q7KWJ5); assay: 2-DG uptake by HEK293 cells overexpressing PfHT; assay type: cell-based; set-up: expressed in transfected cells; host or cells: HEK293 (HEK293-FLIP, native hGLUT1 knocked down by shRNA)
T1 sequence (Q7KWJ5 1-504): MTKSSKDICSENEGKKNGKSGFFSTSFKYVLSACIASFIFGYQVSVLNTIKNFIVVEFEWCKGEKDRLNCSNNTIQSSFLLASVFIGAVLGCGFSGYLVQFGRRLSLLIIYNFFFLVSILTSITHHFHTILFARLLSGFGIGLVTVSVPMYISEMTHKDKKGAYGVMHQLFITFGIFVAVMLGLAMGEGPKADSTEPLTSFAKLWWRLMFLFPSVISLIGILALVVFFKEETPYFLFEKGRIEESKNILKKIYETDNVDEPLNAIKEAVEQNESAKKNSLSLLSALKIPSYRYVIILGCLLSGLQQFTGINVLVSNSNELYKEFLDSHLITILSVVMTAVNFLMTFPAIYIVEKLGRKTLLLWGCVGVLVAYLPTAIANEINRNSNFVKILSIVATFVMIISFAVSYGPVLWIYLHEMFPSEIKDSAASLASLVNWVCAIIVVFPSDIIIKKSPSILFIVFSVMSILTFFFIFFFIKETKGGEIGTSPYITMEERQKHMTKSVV
How it was run: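 Stably transfected HEK293 lines (FRET glucose sensor; native hGLUT1 knocked down by shRNA; GLUT8 with E7R/E8R to keep it at the membrane) preincubated 30 min at 37°C with compound in glucose-free HBSS. Radiolabeled hexose uptake then run 2 min (D-fructose) or 4 min (2-DG) at 37°C, counted by scintillation, protein-normalized and expressed as % of vehicle.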

FTPfHT = target: T2, FTPfHT (Plasmodium falciparum, UniProt Q7KWJ5); assay: 2-DG uptake by HEK293 cells overexpressing FLAG-tagged PfHT (FTPfHT); assay type: cell-based; set-up: the 38–40 kDa band represents full length PfHT; expressed in transfected cells; host or cells: HEK293-FLIP (HEK293)
T2 sequence (Q7KWJ5 1-504): T1 sequence (Q7KWJ5 1-504)
Text: Generation of HEK293 cells overexpressing PfHT and human GLUTs 1–4 were described elsewhere. Briefly, HEK293 cells were transfected with pcDNA3.1 FLII12Pglu-7006 (Addgene), containing the fluorescence resonance energy transfer (FRET) glucose sensor (HEK293-FLIP) and PfHT, human GLUT1 (hGLUT1), hGLUT2, hGLUT3, hGLUT4, hGLUT5 or hGLUT8 using Optifect (Life Technologies) according to manufacturer’s specifications. To increase retention of GLUT8 at the plasma membrane, the dileucine sorting signal E^7E^8XXXLL was modified to R^7R^8XXXLL as described in [17]. Stable transfectants were selected for G418 and hygromycin resistance to select for FRET sensor and hexose transporter, respectively. HEK293-FLIP cells were also used to generate cells stably transfected with FLAG-tagged PfHT (FTPfHT). FLAG tag ([…]) followed by a triple glycine linker and a tobacco etch virus (TEV) protease site (ENLYFQS) followed by a triple glycine linker was added to the N-terminus of PfHT via PCR [18] using Phusion Hot Start II High-Fidelity DNA Polymerase (Fisher Scientific). Single clones were selected by comparing their abilities to transport glucose as assayed via FRET and radiolabeled hexose uptake. In all cell lines, except for HEK293 cells overexpressing hGLUT1 and hGLUT5, native hGLUT1 was knocked down using shRNA as described elsewhere. Transcript levels of the individual GLUTs expressed in each cell line are as described in [13, 15] and in S1 Fig.
Glucose uptake by P. falciparum was performed essentially as described. P. falciparum strain 3D7 was cultured in 100 mm tissue culture dishes (Techno Plastic Products) in a 2% suspension of human erythrocytes and RPMI 1640 medium until reaching > 7.5% parasitemia. Cells were pelleted via centrifugation and resuspended in RPMI 1640 medium. To determine the uptake of radiolabeled glucose into the parasite, parasites were isolated from infected erythrocytes by permeablization with saponin (0.05 w/v), followed by centrifugation, aspiration of supernatant and washing of the pellet 3X with saline solution (135 mM NaCl, 2 mM KCl, 25 mM HEPES, 0.2 mM glucose and 1 mM MgCl2; pH 7.1) to remove cellular debris. WU-1 or DMSO vehicle were added to 100 μl parasites (resuspended in saline) 5 min prior to the addition of 100 μl [^14C]2-DOG (0.2- μCi/ml final concentration). 2-DG uptake was stopped after 2 min by layering the entire reaction over 300 μl of an oil mixture (5:4 mix of dibutyl phthalate / dinonyl phthalate) in Eppendorf tubes and centrifuged at 15,850 × g for 2 mins. The ratio of the estimated intracellular concentration of radiolabel relative to the extracellular concentration were calculated as described. Uptake of radiolabeled hexose into HEK293 cells was measured in glucose-free HBSS as described previously. Briefly, cells were plated at 400,000 cells/well overnight at 37°C in 24-well plates pre-treated with PEI. After 30-min incubation at 37°C in glucose-free HBSS in the presence of vehicle or increasing concentrations of compound, 2-DG uptake was measured in glucose-free HBSS for 4 min at 37°C. Cultures were washed in ice-cold 1X PBS and lysed in 0.1% Triton X-100 in 1X PBS. Radiolabeled hexose uptake was determined by liquid scintillation counting (Ultima Gold, Thermo Fisher) and normalized to total protein per well. Uptake data are plotted as percent uptake relative to vehicle-treated cells. Kinetic analyses were performed using the indicated concentrations of substrate and WU-1, with quenching of uptake after 1 min incubation. Incubation times had been previously determined as being in the linear range of time-dependent radiolabeled hexose uptake (2 min for 2-DG uptake into freed parasites; 2 and 4 min for D-Frc and 2-DG uptake HEK cell lines, respectively). Data were fit by least squares nonlinear regression analysis using GraphPad Prism 6.0 software.

Cc1ccc(S(=O)(=O)CCNC(=O)c2c(-c3c(Cl)cccc3Cl)noc2C)cc1 [WU-1, 3-(2,6-dichlorophenyl)-5-methyl-N-[2-(4-methylbenzenesulfonyl)ethyl]-1,2-oxazole-4-carboxamide]
Maximum Inhibition (%) (PfHT; 2-DG uptake, PfHT cell line): 93.2%
remaining activity at 0.001 µM (PfHT; HEK293, 4 min, read-out: 2-DG Uptake AVE, PfHT, concentration 0.001 µM, Expt 1-3): 100%
remaining activity at 0.09375 µM (PfHT; HEK293, 4 min, read-out: 2-DG Uptake AVE, PfHT, concentration 0.09375 µM): 91.6%
remaining activity at 0.1875 µM (PfHT; HEK293, 4 min, read-out: 2-DG Uptake AVE, PfHT, concentration 0.1875 µM): 88.9%
remaining activity at 0.3125 µM (PfHT; HEK293, 4 min, read-out: 2-DG Uptake AVE, PfHT, concentration 0.3125 µM): 90.1%
remaining activity at 0.375 µM (PfHT; HEK293, 4 min, read-out: 2-DG Uptake AVE, PfHT, concentration 0.375 µM): 85.8%
remaining activity at 0.625 µM (PfHT; HEK293, 4 min, read-out: 2-DG Uptake AVE, PfHT, concentration 0.625 µM): 85.2%
remaining activity at 0.75 µM (PfHT; HEK293, 4 min, read-out: 2-DG Uptake AVE, PfHT, concentration 0.75 µM): 76.1%
remaining activity at 1.25 µM (PfHT; HEK293, 4 min, read-out: 2-DG Uptake AVE, PfHT, concentration 1.25 µM): 64.5%
remaining activity at 2.5 µM (PfHT; HEK293, 4 min, read-out: 2-DG Uptake AVE, PfHT, concentration 2.5 µM): 70.2%
remaining activity at 5 µM (PfHT; HEK293, 4 min, read-out: 2-DG Uptake AVE, PfHT, concentration 5 µM): 49.8%
remaining activity at 10 µM (PfHT; HEK293, 4 min, read-out: 2-DG Uptake AVE, PfHT, concentration 10 µM): 34.7%
remaining activity at 20 µM (PfHT; HEK293, 4 min, read-out: 2-DG Uptake AVE, PfHT, concentration 20 µM): 21.1%
remaining activity at 40 µM (PfHT; HEK293, 4 min, read-out: 2-DG Uptake AVE, PfHT, concentration 40 µM): 20.4%
remaining activity at 80 µM (PfHT; HEK293, 4 min, read-out: 2-DG Uptake AVE, PfHT, concentration 80 µM): 8.82%
remaining activity at 160 µM (PfHT; HEK293, 4 min, read-out: 2-DG Uptake AVE, PfHT, concentration 160 µM): 5.63%
remaining activity at 225 µM (PfHT; HEK293, 4 min, read-out: 2-DG Uptake AVE, PfHT, concentration 225 µM): 5.69%
remaining activity at 0.001 µM (PfHT; HEK293, 4 min, read-out: 2-DG uptake (percent uptake relative to vehicle), AVE, PfHT, 0.001 µM compound): 100%
remaining activity at 0.09375 µM (PfHT; HEK293, 4 min, read-out: 2-DG uptake (percent uptake relative to vehicle), AVE, PfHT, 0.09375 µM compound): 91.6%
remaining activity at 0.1875 µM (PfHT; HEK293, 4 min, read-out: 2-DG uptake (percent uptake relative to vehicle), AVE, PfHT, 0.1875 µM compound): 88.9%
remaining activity at 0.3125 µM (PfHT; HEK293, 4 min, read-out: 2-DG uptake (percent uptake relative to vehicle), AVE, PfHT, 0.3125 µM compound (0.313 in Fig 1 sheet for WU-1)): 90.2%
remaining activity at 0.375 µM (PfHT; HEK293, 4 min, read-out: 2-DG uptake (percent uptake relative to vehicle), AVE, PfHT, 0.375 µM compound): 85.8%
remaining activity at 0.625 µM (PfHT; HEK293, 4 min, read-out: 2-DG uptake (percent uptake relative to vehicle), AVE, PfHT, 0.625 µM compound): 85.3%
remaining activity at 0.75 µM (PfHT; HEK293, 4 min, read-out: 2-DG uptake (percent uptake relative to vehicle), AVE, PfHT, 0.75 µM compound): 76.1%
remaining activity at 1.25 µM (PfHT; HEK293, 4 min, read-out: 2-DG uptake (percent uptake relative to vehicle), AVE, PfHT, 1.25 µM compound): 80.1%
remaining activity at 2.5 µM (PfHT; HEK293, 4 min, read-out: 2-DG uptake (percent uptake relative to vehicle), AVE, PfHT, 2.5 µM compound): 68.2%
remaining activity at 5 µM (PfHT; HEK293, 4 min, read-out: 2-DG uptake (percent uptake relative to vehicle), AVE, PfHT, 5 µM compound): 53.2%
remaining activity at 10 µM (PfHT; HEK293, 4 min, read-out: 2-DG uptake (percent uptake relative to vehicle), AVE, PfHT, 10 µM compound): 42.3%
remaining activity at 20 µM (PfHT; HEK293, 4 min, read-out: 2-DG uptake (percent uptake relative to vehicle), AVE, PfHT, 20 µM compound): 30.2%
remaining activity at 40 µM (PfHT; HEK293, 4 min, read-out: 2-DG uptake (percent uptake relative to vehicle), AVE, PfHT, 40 µM compound): 18.7%
remaining activity at 80 µM (PfHT; HEK293, 4 min, read-out: 2-DG uptake (percent uptake relative to vehicle), AVE, PfHT, 80 µM compound): 9.91%
remaining activity at 160 µM (PfHT; HEK293, 4 min, read-out: 2-DG uptake (percent uptake relative to vehicle), AVE, PfHT, 160 µM compound): 5.69%
remaining activity at 225 µM (PfHT; HEK293, 4 min, read-out: 2-DG uptake (percent uptake relative to vehicle), AVE, PfHT, 225 µM compound): 6.88%
inhibition at 5 µM (PfHT; HEK293, 4 min, read-out: % Inhibition of 2-DG uptake vs vehicle): 50.2%
IC50 (PfHT; IC50 (µM), PfHT, 2-DG Uptake, single experiments Expt 1-3): 4.6 µM and 6.6 µM and 6.34 µM
IC50 (PfHT; IC50 for inhibition of 2-DG uptake, HEK293 cells overexpressing PfHT, mean/reported value): 5.8 µM and 5.85 µM
IC50 (PfHT; IC50 for inhibition of 2-DG uptake, individual experiments, HEK293 PfHT, Expt 1-3): 4.6 µM and 6.6 µM and 6.34 µM
2-DG uptake (percent uptake relative to vehicle), AVE (PfHT; PfHT, 0.001 µM compound): 100.00
2-DG Uptake AVE (PfHT; PfHT, concentration 0.001 µM, Expt 1-3): 100.00
Selectivity Index, 2-DG, PfHT line itself (PfHT; reference value): 1.0
IC50 (FTPfHT; FTPfHT, 2-DG Uptake, average of Expt 1-3, read-out: AVE IC50): 19.5 µM
IC50 (FTPfHT; FTPfHT, 2-DG Uptake, single experiments Expt 1-3, read-out: IC50): 19.2 µM and 18.9 µM and 20.5 µM
remaining activity at 0.001 µM (FTPfHT; HEK293, 4 min, FTPfHT, concentration 0.001 µM, Expt 1-3, read-out: 2-DG Uptake AVE): 100%
remaining activity at 0.313 µM (FTPfHT; HEK293, 4 min, FTPfHT, concentration 0.313 µM, read-out: 2-DG Uptake AVE): 95.9%
remaining activity at 0.625 µM (FTPfHT; HEK293, 4 min, FTPfHT, concentration 0.625 µM, read-out: 2-DG Uptake AVE): 92.1%
remaining activity at 1.25 µM (FTPfHT; HEK293, 4 min, FTPfHT, concentration 1.250 µM, read-out: 2-DG Uptake AVE): 81.9%
remaining activity at 2.5 µM (FTPfHT; HEK293, 4 min, FTPfHT, concentration 2.500 µM, read-out: 2-DG Uptake AVE): 84.9%
remaining activity at 5 µM (FTPfHT; HEK293, 4 min, FTPfHT, concentration 5.0 µM, read-out: 2-DG Uptake AVE): 80.6%
remaining activity at 10 µM (FTPfHT; HEK293, 4 min, FTPfHT, concentration 10.0 µM, read-out: 2-DG Uptake AVE): 64.8%
remaining activity at 20 µM (FTPfHT; HEK293, 4 min, FTPfHT, concentration 20 µM, read-out: 2-DG Uptake AVE): 52.4%
remaining activity at 40 µM (FTPfHT; HEK293, 4 min, FTPfHT, concentration 40 µM, read-out: 2-DG Uptake AVE): 41.1%
remaining activity at 80 µM (FTPfHT; HEK293, 4 min, FTPfHT, concentration 80 µM, read-out: 2-DG Uptake AVE): 29.3%
remaining activity at 160 µM (FTPfHT; HEK293, 4 min, FTPfHT, concentration 160 µM, read-out: 2-DG Uptake AVE): 19.9%
remaining activity at 225 µM (FTPfHT; HEK293, 4 min, FTPfHT, concentration 225 µM, read-out: 2-DG Uptake AVE): 17.1%
IC50 (FTPfHT; IC50 for inhibition of 2-DG uptake, HEK293 cells overexpressing FTPfHT): 19.5 ± 0.5 µM
